Assay results published in PubChem BioAssay AID318 (DTP/NCI, 2004).
“And” between values parts separate entries of the source, which are not always exact repeats. Equal values may be shown once. Inconclusive results and toxic doses are left out. Starred links: 1 amine or outer side, 2 acyl side, 3 side chain; linkers in the order of their positions; H or OH if unused. Positions of bridges follow the written chain, without caps; N, C: chain ends. Non-standard residues stand in square brackets, D forms with d. Residues, ends and D or L forms follow the SMILES beside them. Chains are numbered I, II in the order given. Actinocin(9to1) = Cc1c2oc3c(C)ccc(C(=O)[*:1])c3nc-2c(C(=O)[*:2])c(N)c1=O; aThr = C[C@H](O)[C@H](N)C(=O)O; NMeV = CN[C@H](C(=O)O)C(C)C; Sar = CNCC(=O)O

Tested on: BDF1 mice, P815 leukemia ip, survival T/C
Experiment: NCI In Vivo Anticancer Drug Screen. Data for tumor model P815 Mast Cell Leukemia (Ascitic) (intraperitoneal) in B6D2F1 (BDF1) mice
Settings: higher = longer survival
Description: The antitumor activity of compounds was measured in mice bearing transplantable tumors. Survival or tumor size were measured and the results are expressed as the measurement made in the treated group (T) divided by the measurement made in the vehicle treated control group (C). The tumor model used in this assay is P815 Mast Cell Leukemia (Ascitic) (intraperitoneal) in B6D2F1 (BDF1) mice

[1] = endpoint: survival time, mean or median, dose: 250.0 mg/kg/injection, schedule: Q01DX010 (ip), vehicle: saline
[2] = endpoint: survival time, mean or median, dose: 375.0 mg/kg/injection, schedule: Q01DX010 (ip), vehicle: saline
[3] = endpoint: survival time, mean or median, dose: 167.0 mg/kg/injection, schedule: Q01DX010 (ip), vehicle: saline

## O=C(Nc1ccc(NC(=O)Nc2ccc(C3=NCCN3)cc2)cc1)Nc1ccc(C2=NCCN2)cc1
endpoint: survival time, mean or median, dose: 110.0 mg/kg/injection, schedule: Q01DX010 (ip), vehicle: saline
  T/C: 113 % of control
endpoint: survival time, mean or median, dose: 165.0 mg/kg/injection, schedule: Q01DX010 (ip), vehicle: saline
  T/C: 113 % of control
[1]
  T/C: 100 % of control
[2]
  T/C: 104 % of control

## NC(=O)c1[nH]nc(C2OC(CO)C(O)C2O)c1O (configuration not stated)
endpoint: median survival time, dose: 1.56 mg/kg/injection, schedule: Q04DX003 (ip), vehicle: saline
  T/C: 102 % of control
endpoint: median survival time, dose: 2.59 mg/kg/injection, schedule: Q04DX003 (ip), vehicle: saline
  T/C: 104 % of control
endpoint: median survival time, dose: 4.32 mg/kg/injection, schedule: Q04DX003 (ip), vehicle: saline
  T/C: 103 % of control
endpoint: median survival time, dose: 7.2 mg/kg/injection, schedule: Q04DX003 (ip), vehicle: saline
  T/C: 121 % of control
endpoint: median survival time, dose: 12.0 mg/kg/injection, schedule: Q04DX003 (ip), vehicle: saline
  T/C: 114 % of control
endpoint: median survival time, dose: 20.0 mg/kg/injection, schedule: Q04DX003 (ip), vehicle: saline
  T/C: 104 % of control

## N=[N+]=CC(=O)OCC(N)C(=O)O (configuration not stated)
endpoint: survival time, mean or median, dose: 3.13 mg/kg/injection, schedule: Q01DX010 (ip), vehicle: saline
  T/C: 110 % of control and 111 % of control
endpoint: survival time, mean or median, dose: 6.25 mg/kg/injection, schedule: Q01DX010 (ip), vehicle: saline
  T/C: 118 % of control and 119 % of control
endpoint: survival time, mean or median, dose: 12.5 mg/kg/injection, schedule: Q01DX010 (ip), vehicle: saline
  T/C: 100 % of control and 123 % of control

## O=C(Nc1ccc(C2=NCCN2)cc1)c1cc(Cl)cc(C(=O)Nc2ccc(C3=NCCN3)cc2)c1
endpoint: survival time, mean or median, dose: 140.0 mg/kg/injection, schedule: Q01DX010 (ip), vehicle: saline
  T/C: 91 % of control
endpoint: survival time, mean or median, dose: 210.0 mg/kg/injection, schedule: Q01DX010 (ip), vehicle: saline
  T/C: 95 % of control
endpoint: survival time, mean or median, dose: 315.0 mg/kg/injection, schedule: Q01DX010 (ip), vehicle: saline
  T/C: 86 % of control
endpoint: survival time, mean or median, dose: 473.0 mg/kg/injection, schedule: Q01DX010 (ip), vehicle: saline
  T/C: 91 % of control

## O=C(Nc1ccc(C2=NCCN2)cc1)c1cc(C(=O)Nc2ccc(C3=NCCN3)cc2)cc([N+](=O)[O-])c1
[3]
  T/C: 91 % of control
[1]
  T/C: 95 % of control
[2]
  T/C: 91 % of control

## Cc1c2oc3c(C)ccc(C(=O)N[C@@H]4C(=O)N[C@H](C(C)C)C(=O)N5CCC[C@H]5C(=O)N(C)CC(=O)N(C)[C@@H](C(C)C)C(=O)O[C@H]4C)c3nc-2c(C(=O)N[C@@H]2C(=O)N[C@H](C(C)C)C(=O)N3CCC[C@H]3C(=O)N(C)CC(=O)N(C)[C@@H](C(C)C)C(=O)O[C@H]2C)c(N)c1=O (I: [aThr][dV]P[Sar][NMeV] / II: [aThr][dV]P[Sar][NMeV]; ester I:1-I:C, II:1-II:C; linker I:N-II:N via Actinocin(9to1))
endpoint: median survival time, dose: 180.0 micrograms/kg/injection, schedule: Q04DX003 (ip), vehicle: saline + alcohol
  T/C: 122 % of control
endpoint: median survival time, dose: 300.0 micrograms/kg/injection, schedule: Q04DX003 (ip), vehicle: saline + alcohol
  T/C: 105 % of control
endpoint: median survival time, dose: 500.0 micrograms/kg/injection, schedule: Q04DX003 (ip), vehicle: saline + alcohol
  T/C: 90 % of control

## CC(=O)OCC1OC(n2cnc3c(=S)nc[nH]c32)C(OC(C)=O)C1OC(C)=O (configuration not stated)
endpoint: survival time, mean or median, dose: 50.0 mg/kg/injection, schedule: Q01DX015 (ip), vehicle: carboxymethylcellulose (CMC)
  T/C: 162 % of control
endpoint: survival time, mean or median, dose: 100.0 mg/kg/injection, schedule: Q01DX015 (ip), vehicle: carboxymethylcellulose (CMC)
  T/C: 100 % of control

## O=C(Nc1ccc(C2=NCCN2)cc1)c1cccc(C(=O)Nc2ccc(C3=NCCN3)cc2)c1
endpoint: survival time, mean or median, dose: 8.0 mg/kg/injection, schedule: Q01DX010 (ip), vehicle: saline
  T/C: 118 % of control
endpoint: survival time, mean or median, dose: 32.0 mg/kg/injection, schedule: Q01DX010 (ip), vehicle: saline
  T/C: 200 % of control and 160 % of control
endpoint: survival time, mean or median, dose: 64.0 mg/kg/injection, schedule: Q01DX010 (ip), vehicle: saline
  T/C: 181 % of control and 233 % of control

## O=C(Nc1ccc(C2=NCCN2)cc1)c1ccc(C(=O)Nc2ccc(C3=NCCN3)cc2)cc1
endpoint: survival time, mean or median, dose: 75.0 mg/kg/injection, schedule: Q01DX010 (ip), vehicle: saline
  T/C: 158 % of control
endpoint: survival time, mean or median, dose: 112.0 mg/kg/injection, schedule: Q01DX010 (ip), vehicle: saline
  T/C: 175 % of control
[3]
  T/C: 175 % of control
[1]
  T/C: 108 % of control

## C[N+](C)(C)c1ncnc2nc[nH]c12
endpoint: survival time, mean or median, dose: 15.0 mg/kg/injection, schedule: Q01DX010 (ip), vehicle: saline
  T/C: 100 % of control
endpoint: survival time, mean or median, dose: 30.0 mg/kg/injection, schedule: Q01DX010 (ip), vehicle: saline
  T/C: 94 % of control
endpoint: survival time, mean or median, dose: 60.0 mg/kg/injection, schedule: Q01DX010 (ip), vehicle: saline
  T/C: 88 % of control

## CC(=O)NC1=C(N2CC2)C(=O)C(NC(C)=O)=C(N2CC2)C1=O
endpoint: survival time, mean or median, dose: 0.5 mg/kg/injection, schedule: Q01DX015 (ip), vehicle: carboxymethylcellulose (CMC)
  T/C: 203 % of control
endpoint: survival time, mean or median, dose: 1.0 mg/kg/injection, schedule: Q01DX015 (ip), vehicle: carboxymethylcellulose (CMC)
  T/C: 103 % of control
